The values that follow are results of earlier work, collected in US6872696B2, “Particle with substituted polyvinyl alcohol coating” (Genencor International, Inc., priority 2000, dated 2005).

For this data set the following is noted: neutral unreacted compound in water, 25 degrees C.
As to `OCCS` [2-mercaptoethanol], the “Solubility g/100 ml H2O” value is reported as “infinite”.
Turning to `CCS` [ethanethiol], the “Solubility g/100 ml H2O” value is reported as 0.67 g/100 ml H2O.
As to `O=C(O)/C=C\C(=O)O` [maleic], the “Solubility g/100 ml H2O” value is reported as “infinite”.
